Measured values from patent US20260176285A1, “SALT OF DIOXANE QUINOLINE COMPOUND, CRYSTAL FORM THEREOF, PREPARATION METHODS THEREFOR AND USES THEREOF” (Beijing Scitech-MQ Pharmaceuticals Limited, priority 2022, published 2026).
Converted amounts (≈) assume the structure as drawn.

Tests used:
[1] = Equilibrium solubility in water; format: physicochemical; conditions: H2O, room temperature, 24 hours; listed as p-Toluenesulfonate salt crystal form B-III
Procedure: The sample was centrifuged and filtered, and the filtrate was tested by HPLC.

[2] = Hygroscopicity by dynamic moisture sorption (DVS); format: physicochemical; conditions: for Moisture adsorption (25° C./80% RH) / Hygroscopicity: DVS
Procedure: Dynamic moisture sorption (DVS): The curves were collected on a DVS Intrinsic of SMS (Surface Measurement Systems). At 25° C., the humidity range was 0% RH-95% RH, the step was 10% (the last step was 5%), and the dm/dt was 0.002%/min.
The hygroscopicity of the free compound of formula (I), mucate salt crystal form A-I, p-toluenesulfonate salt crystal forms A-II and B-III, di-p-toluenesulfonate salt crystal form A-IV and phosphate salt crystal form A-V was evaluated by dynamic moisture sorption instrument (DVS). Starting from 0% relative humidity (0% RH), the test collected the mass change percentage of the samples under constant temperature of 25° C. with humidity changes (0% RH-95% RH-0% RH).

[3] = Solid-state stability evaluation (XRPD, HPLC); format: physicochemical
Procedure: The following 6 test samples were placed under 25° C./60% RH and 40° C./75% RH conditions for 1 week, and then the physical and chemical stability of the samples was tested by XRPD and HPLC.
At the same time, after the p-toluenesulfonate salt crystal form A-II and crystal form B-III solids were placed at 80° C. for 24 hours, the physical and chemical stability of the samples were tested by XRPD and HPLC.

[4] = Dynamic solubility in water, SGF, FaSSIF and FeSSIF; format: physicochemical; conditions: for solubility at 1 h / solubility at 2 h / solubility at 4 h / solubility at 24 h: 37 °C, thermodynamic from solid
Procedure: Biological solvent Preparation • 1. […] 67.5 μL of concentrated hydrochloric acid (12 M) was added and the mixture was adjusted to a pH value of 1.8 with 1 M hydrochloric acid or 1 M NaOH solution. Purified water was added to make up to volume. • 2. Preparation of Fasted State Simulated Intestinal Fluid (FaSSIF): 0.17 g of anhydrous NaH2PO4, 0.021 g of NaOH, and 0.31 g of NaCl were weighed into a 50-mL volumetric flask. About 48 mL of purified water was added to dissolve the mixture completely, and the solution was adjusted to a pH value of 6.5 with 1 M hydrochloric acid or 1 M NaOH solution. Purified water was added to make up to volume. 0.11 g of SIF powder was added and dissolved completely. • 3. Preparation of Fed State Simulated Intestinal Fluid (FeSSIF): 0.41 mL of glacial acetic acid, 0.20 g of NaOH and 0.59 g of NaCl were weighed into a 50-mL volumetric flask. About 48 mL of purified water was added to dissolve the mixture completely, and the solution was adjusted to a pH value of 5.0 with 1 M hydrochloric acid or 1 M NaOH solution. Purified water was added to make up to volume. 0.56 g of SIF powder was added and dissolved completely.
The dynamic solubility of the free state, the mucate salt crystal form A-I, the p-toluenesulfonate salt crystal form A-II, the di-p-toluenesulfonate salt crystal form A-IV and the phosphate salt crystal form A-V of the compound of formula (I) in water and three biological solvents was evaluated.
The samples at each time point were centrifuged and filtered (0.45 μm PTFE filter head), and the HPLC concentration and pH value of the filtrate were determined.

[5] = test system: human lung cancer cells EBC-1; assay: Efficacy in nude mouse tumor-bearing model of human lung cancer cells EBC-1; format: in vivo, Balb/c nude mouse
Description: In this assay, the free compound of formula (I) of the present application and different salts of the compound prepared in Examples 1, 2 and 5 were orally administered to a nude mouse tumor-bearing model of human lung cancer cells EBC-1 to study their effects on tumor growth.
Preparation of test compounds: an appropriate weight of the test compound (including the free form of the compound of formula (I) and different salts of the compound prepared in Examples 1, 2 and 5) was weighed, completely suspended/dissolved in an appropriate volume of 0.1% sodium carboxymethyl cellulose, stirred and vortexed to give a uniform solution or suspension.
Methods: All assays were authorized by the Animal Welfare Committee. EBC-1 in the logarithmic growth phase was inoculated into immune-deficient nude mice (BALB/c nude, female, 6-8 weeks old, weighing 18±2 g), subcutaneously on the right back, with a cell inoculation amount of 5×10^6/mouse. After the tumor grew to 150-200 mm^3, the animals were randomly divided into groups, 6 mice per group. The dose of each test substance was set at 15 mg/kg and 7.5 mg/kg (both based on the concentration of the effective formula (I) compound), and administered once a day for about 3 weeks. The test compounds were freshly prepared each day before use. During the assay, the tumor diameter was measured twice a week, and the mice were weighed at the same time. The calculation formula of tumor volume (TV) is: TV=1/2×a×b^2, where a and b represent length and width, respectively. The relative tumor volume (RTV) was calculated based on the measurement results, and the calculation formula is: RTV=Vt/V0, wherein V0 is the tumor volume measured at the time of cage grouping and dosing initiation (i.e., d0), and Vt is the tumor volume at each measurement. The evaluation index of antitumor activity is the relative tumor proliferation rate T/C (%), calculated as follows: T/C (%)=(TRTV/CRTV)×100%, TRTV: RTV of the treatment group; CRTV: RTV of the negative control group. T and C represent the average tumor volume at a certain time point in the drug administration group and the control group, respectively.

[6] = 40° C./75% RH, 1 week, listed as p-Toluenesulfonate salt crystal form B-III
[7] = 80° C., 24 hours, listed as p-Toluenesulfonate salt crystal form B-III
[8] = pH 1.8, simulated gastric fluid

Compound: O=C(Nc1ccc(F)cc1)C1(C(=O)Nc2ccc(Oc3ccnc4cc(OCCCN5CCOCC5)c5c(c34)OCCO5)c(F)c2)CC1 [Example 3, N-(3-fluoro-4-((5-(3-morpholinopropoxy)-2,3-dihydro-[1,4]dioxano[2,3-f]quinolin-10-yl)oxy)phenyl)-N-(4-fluorophenyl)cyclopropane-1,1-dicarboxamide]
- Solubility (equilibrium) [1]: 1300 µg/mL
- Moisture adsorption (25° C./80% RH) ([2]; listed as p-Toluenesulfonate salt crystal form B-III): 3.13%
- Hygroscopicity ([2]; 25° C., listed as p-Toluenesulfonate salt crystal form B-III): Hygroscopic
- Purity ([3]; 25° C./60% RH, 1 week, listed as p-Toluenesulfonate salt crystal form B-III): 99.68 area %
- Purity [3, 6]: 99.63 area %
- Purity/initial purity [3, 6]: 99.8%
- Change of Crystal form ([3]; 80° C., 24 hours): no
- Purity [3, 7]: 99.56 area %
- Purity/initial purity [3, 7]: 99.8%
- Purity ([3]; Starting, listed as p-Toluenesulfonate salt crystal form B-III): 99.79 area %

Compound: O=C(Nc1ccc(F)cc1)C1(C(=O)Nc2ccc(Oc3ccnc4cc(OCCCN5CCOCC5)c5c(c34)OCCO5)c(F)c2)CC1 [Free state, N-(3-fluoro-4-((5-(3-morpholinopropoxy)-2,3-dihydro-[1,4]dioxano[2,3-f]quinolin-10-yl)oxy)phenyl)-N-(4-fluorophenyl)cyclopropane-1,1-dicarboxamide]
- S (dynamic solubility) [4]: <LOQ
- solubility at 1 h [4, 8]: 5700 µg/mL (≈ 8630 µM)
- solubility at 2 h [4, 8]: 5800 µg/mL (≈ 8780 µM)
- solubility at 4 h [4, 8]: 5700 µg/mL (≈ 8630 µM)
- solubility at 24 h [4, 8]: 5700 µg/mL (≈ 8630 µM)
- solubility at 1 h ([4]; pH 5, fessif): 640 µg/mL (≈ 969 µM)
- solubility at 2 h ([4]; pH 5, fessif): 710 µg/mL (≈ 1070 µM)
- solubility at 4 h ([4]; pH 5, fessif): 710 µg/mL (≈ 1070 µM)
- solubility at 24 h ([4]; pH 5, fessif): 760 µg/mL (≈ 1150 µM)
- solubility at 1 h ([4]; pH 6.5, fassif): 1.8 µg/mL (≈ 2.72 µM)
- solubility at 2 h ([4]; pH 6.5, fassif): 1.9 µg/mL (≈ 2.88 µM)
- solubility at 4 h ([4]; pH 6.5, fassif): 2.1 µg/mL (≈ 3.18 µM)
- solubility at 24 h ([4]; pH 6.5, fassif): 2.5 µg/mL (≈ 3.78 µM)
- pH of the filtrate ([4]; FaSSIF, 1 hour): 6.4
- pH of the filtrate ([4]; FaSSIF, 2 hours): 6.4
- pH of the filtrate ([4]; FaSSIF, 4 hours): 6.4
- pH of the filtrate ([4]; FaSSIF, 24 hours): 6.4
- pH of the filtrate ([4]; FeSSIF, 1 hour): 4.9
- pH of the filtrate ([4]; FeSSIF, 2 hours): 5.0
- pH of the filtrate ([4]; FeSSIF, 4 hours): 5.0
- pH of the filtrate ([4]; FeSSIF, 24 hours): 5.0
- pH of the filtrate ([4]; H2O, 1 hour): 6.7
- pH of the filtrate ([4]; H2O, 2 hours): 5.5
- pH of the filtrate ([4]; H2O, 4 hours): 6.7
- pH of the filtrate ([4]; H2O, 24 hours): 7.8
- pH of the filtrate ([4]; SGF, 1 hour): 3.6
- pH of the filtrate ([4]; SGF, 2 hours): 3.7
- pH of the filtrate ([4]; SGF, 4 hours): 3.7
- pH of the filtrate ([4]; SGF, 24 hours): 3.8
- Whether the crystal form changes after DVS test ([2]; 0% RH-95% RH-0% RH, 25° C.): no
- Hygroscopicity ([2]; 25° C.): Almost no
- Moisture adsorption (25° C./80% RH) [2]: 0.11%
- Change of Crystal form ([3]; 25° C./60% RH, 1 week): no
- Purity ([3]; 25° C./60% RH, 1 week): 99.36 area %
- Purity/initial purity ([3]; 25° C./60% RH, 1 week): 99.9%
- Change of Crystal form ([3]; 40° C./75% RH, 1 week): no
- Purity ([3]; 40° C./75% RH, 1 week): 99.39 area %
- Purity/initial purity ([3]; 40° C./75% RH, 1 week): 99.9%
- Change of Crystal form ([3]; Starting): no
- Purity ([3]; Starting): 99.44 area %
- T/C (relative tumor proliferation rate) ([5]; 7.5 mg/kg oral once a day, day 3): 80.2%
- T/C (relative tumor proliferation rate) ([5]; 7.5 mg/kg oral once a day, day 7): 68.3%
- T/C (relative tumor proliferation rate) ([5]; 7.5 mg/kg oral once a day, day 10): 77.9%
- T/C (relative tumor proliferation rate) ([5]; 7.5 mg/kg oral once a day, day 14): 69.3%
- T/C (relative tumor proliferation rate) ([5]; 7.5 mg/kg oral once a day, day 18): 81.3%
- T/C (relative tumor proliferation rate) ([5]; 7.5 mg/kg oral once a day, day 21): 70.68%
- T/C (relative tumor proliferation rate) ([5]; 15 mg/kg oral once a day, day 3): 88.8%
- T/C (relative tumor proliferation rate) ([5]; 15 mg/kg oral once a day, day 7): 76.9%
- T/C (relative tumor proliferation rate) ([5]; 15 mg/kg oral once a day, day 10): 80.4%
- T/C (relative tumor proliferation rate) ([5]; 15 mg/kg oral once a day, day 14): 66.4%
- T/C (relative tumor proliferation rate) ([5]; 15 mg/kg oral once a day, day 18): 72.2%
- T/C (relative tumor proliferation rate) ([5]; 15 mg/kg oral once a day, day 21): 64.60%
